Data from patent US20240238288A1, “ALDOSE REDUCTASE INHIBITORS FOR TREATING SORBITOL DEHYDROGENASE DEFICIENCY” (APPLIED THERAPEUTICS, INC., priority 2020, published 2024).

Test system: fibroblasts from patients with SDH deficiency (biallelic c.757delG)
Test: Sorbitol levels in human fibroblasts from patients with sorbitol dehydrogenase deficiency treated with aldose reductase inhibitors
Assay type: cell-based
Details: for reduction of sorbitol levels in comparison to vehicle control: 72 hours, SDH-deficient patient fibroblasts, sorbitol by UPLC-MS/MS normalized to protein; for sorbitol levels in SORD fibroblasts (FIG. 1 legend): FIG. 1 histogram, SORD patient fibroblasts
Description: Fibroblasts were obtained from skin biopsy of normal human volunteers or patients with confirmed sorbitol dehydrogenase deficiency (biallelic c.757delG). Fibroblasts were cultured in triplicate in Dulbecco's modified Eagle's medium (ThermoFisher) supplemented with 10% fetal bovine serum, penicillin and streptomycin (Gibco). Cells were grown in 5% CO2 at 37° C. in a humidified incubator. Asynchronous cell cultures were grown to approximately 80% confluency, and then treated with vehicle, Compound A (100 uM) or Compound B (10 uM) for 72 hours. Th media containing vehicle, Compound A or Compound B, was changed every 24 hours.
Sorbitol and protein were determinated from lysates of human fibroblasts. For protein measurements, fibroblasts were collected and lysed in RIPA buffer (ThermoFisher) containing protease inhibitors (Roche) and sonicated for 5 minutes using a Bioruptor sonication device (Diagenode). Protein quantification was conducted using a Coomassie assay. For sorbitol determination, a UPLC-tandem mass spectrometry (MS/MS) (Waters Acquity UPLC & TQD mass spectrometer) was used, fibroblasts were collected and lysed in RIPA buffer (ThermoFisher) and sonicated for 5 minutes using a Bioruptor sonication device (Diagenode). Cell lysates were centrifuged 13,000 g for 10 minutes at 4° C., and the supernatants were collected for protein quantification and sorbitol measurement. For Sorbitol measurements, the lysate underwent protein precipitation with acetonitrile (1:5), tenfold dilution with acetonitrile/water (50:50) and cleanup on Oasis HLB cartridges (10 mg/ml), before injection (3 ul) into the UPLC system. The UPLC conditions were as follows: column: BHE amid 1.7 um (2.1×100 mm) at 88° C.; eluent A: acetonitrile 90%/water 5%/isopropanol 5%; eluent B: acetonitrile 80%/water 20%; gradient elution, 0 minutes 100% A to 3.6 minutes 100% B; flow rate of 0.45 ml/minute. The retention time of sorbitol was 2.7 minutes. The linearity of the method was assessed between 0.25 and 50 mgl^−1. The MS/MS conditions were as follows: interface, electrospray interface in negative ion mode; multiple reaction monitory acquisition, m z 180.0-88.9 (CV 24, CE 15). The detection limit (signal-to-noise ration=3) was 0.03 mgl^−1. Sorbitol levels were normalized to protein concentration.

Row | Structure (SMILES) | reduction of sorbitol levels in comparison to vehicle control (100 uM) [%] | sorbitol levels in SORD fibroblasts (FIG. 1 legend) | reduction of sorbitol levels in comparison to vehicle control (10 uM) [%]
1 | O=C(O)Cc1nn(Cc2nc3cc(C(F)(F)F)ccc3s2)c(=O)c2nccnc12 [Compound A] | 78 | reduces sorbitol levels | –
2 | O=C(O)Cc1nn(Cc2nc3cc(C(F)(F)F)ccc3s2)c(=O)c2cscc12 [Compound B] | – | reduces sorbitol levels | 75
